Data taken from US6984634B2, “Bile-acid conjugates for providing sustained systemic concentrations of drugs” (XenoPort, Inc., priority 2000, dated 2006).
Where two headings read alike, the source gives them in different places.

What was measured:
rPEPT1 [1] = biological target: T1, rPEPT1 (Rattus norvegicus, UniProt P51574); test: Transport-induced currents in Xenopus oocytes expressing rPEPT1; format: cell-based; settings: relative to Gly-Sar, test compound 1 mM
T1 construct: expressed in transfected cells; host or cells: CHO cells
T1 sequence (P51574 1-710): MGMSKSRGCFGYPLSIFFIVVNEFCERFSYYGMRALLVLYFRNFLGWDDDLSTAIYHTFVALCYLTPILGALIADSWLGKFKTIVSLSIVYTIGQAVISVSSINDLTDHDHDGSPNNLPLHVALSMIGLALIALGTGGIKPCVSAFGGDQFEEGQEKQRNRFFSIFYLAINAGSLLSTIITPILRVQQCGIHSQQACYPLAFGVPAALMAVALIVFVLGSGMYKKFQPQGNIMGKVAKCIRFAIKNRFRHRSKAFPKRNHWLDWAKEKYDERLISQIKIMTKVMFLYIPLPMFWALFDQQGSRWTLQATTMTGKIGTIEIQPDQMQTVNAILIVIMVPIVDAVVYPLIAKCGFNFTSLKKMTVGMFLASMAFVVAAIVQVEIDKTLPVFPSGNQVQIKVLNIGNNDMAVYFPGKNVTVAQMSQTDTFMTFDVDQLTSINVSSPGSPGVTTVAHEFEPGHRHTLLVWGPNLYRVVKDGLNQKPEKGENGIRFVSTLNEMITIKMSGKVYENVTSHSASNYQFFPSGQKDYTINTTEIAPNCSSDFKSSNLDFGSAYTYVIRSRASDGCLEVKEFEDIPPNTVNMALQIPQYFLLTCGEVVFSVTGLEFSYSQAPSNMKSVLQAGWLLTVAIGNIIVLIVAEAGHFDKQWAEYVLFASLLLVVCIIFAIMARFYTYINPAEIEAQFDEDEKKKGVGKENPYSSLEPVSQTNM
Procedure: (§1) Rat and human PEPT1 and PEPT2 expressing CHO cell lines were prepared as described in PCT Application WO01/20331. Gabapentin-containing dipeptides were evaluated for interaction with the peptide transporters using a radiolabeled substrate uptake assay in a competitive inhibition format, as described in PCT Application WO01/20331. Transport-induced currents were also measured in Xenopus oocytes transfected with rat and human PEPT1 and PEPT2.

rPEPT1 [2] = biological target: T1, rPEPT1; test: Inhibition of radiolabeled Gly-Sar uptake in rPEPT1-expressing CHO cells; format: cell-based
Procedure: as §1

rPEPT2 [3] = biological target: T2, rPEPT2 (Rattus norvegicus, UniProt Q63424); test: Transport-induced currents in Xenopus oocytes expressing rPEPT2; format: cell-based; settings: relative to Gly-Sar, test compound 1 mM
T2 construct: expressed in transfected cells; host or cells: Xenopus oocytes
T2 sequence (Q63424 1-729): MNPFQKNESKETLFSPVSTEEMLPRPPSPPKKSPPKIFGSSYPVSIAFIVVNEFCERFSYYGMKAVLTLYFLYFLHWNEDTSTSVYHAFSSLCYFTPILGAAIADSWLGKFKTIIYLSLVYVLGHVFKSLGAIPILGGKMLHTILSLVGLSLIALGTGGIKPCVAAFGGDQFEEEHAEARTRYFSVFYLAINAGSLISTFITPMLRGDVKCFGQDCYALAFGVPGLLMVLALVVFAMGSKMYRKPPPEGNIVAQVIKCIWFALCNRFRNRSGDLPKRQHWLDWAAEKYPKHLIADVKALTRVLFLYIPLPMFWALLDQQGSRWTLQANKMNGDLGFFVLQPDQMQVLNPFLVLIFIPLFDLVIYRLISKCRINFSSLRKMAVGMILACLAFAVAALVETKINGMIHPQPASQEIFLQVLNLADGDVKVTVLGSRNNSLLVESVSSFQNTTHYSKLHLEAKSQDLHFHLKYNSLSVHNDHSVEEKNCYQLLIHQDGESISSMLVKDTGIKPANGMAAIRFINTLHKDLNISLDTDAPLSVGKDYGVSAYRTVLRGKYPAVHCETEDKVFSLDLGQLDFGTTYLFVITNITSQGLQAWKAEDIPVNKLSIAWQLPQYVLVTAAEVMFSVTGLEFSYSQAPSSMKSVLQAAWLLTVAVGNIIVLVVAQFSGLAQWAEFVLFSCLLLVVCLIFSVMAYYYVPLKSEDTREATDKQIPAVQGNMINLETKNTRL
Procedure: as §1

[4] = Pharmacokinetics in rats, Gabapentin in plasma after oral administration; settings: male, Sprague-Dawley, rat, 25 mg/kg
Procedure: The pharmacokinetics of the prodrug Cholyl-Phe-Gabapentin (9g) were examined in rats. Three groups of four male Sprague-Dawley rats (approx 200 g) with jugular cannulae each received one of the following treatments: A) a single bolus intravenous injection of Gabapentin (25 mg/kg, as a solution in water); B) a single oral dose of Gabapentin (25 mg/kg, as a solution in water) administered by oral gavage; C) a single oral dose of (9g) (103.5 mg/kg, as a solution in water) administered by oral gavage. Animals were fasted overnight prior to dosing and until 4 hours post-dosing. Serial blood samples were obtained over 24 hours following dosing and blood was processed for plasma by centrifugation. Plasma samples were stored at −80° C. until analyzed.
Concentrations of (9g) or (2) in plasma samples were determined by LC/MS/MS as described above. Plasma (50 μL) was precipitated by addition of […] of methanol and supernatent was injected directly onto the LC/MS/MS system.

IBAT transporter [5] = biological target: T3, IBAT transporter (Homo sapiens, UniProt Q12908); test: Inhibition of radiolabeled taurocholate uptake in IBAT-expressing CHO cells; format: cell-based; settings: radiolabeled competition assay in IBAT-expressing CHO cells, taurocholate 5 μM
T3 sequence (Q12908 1-348): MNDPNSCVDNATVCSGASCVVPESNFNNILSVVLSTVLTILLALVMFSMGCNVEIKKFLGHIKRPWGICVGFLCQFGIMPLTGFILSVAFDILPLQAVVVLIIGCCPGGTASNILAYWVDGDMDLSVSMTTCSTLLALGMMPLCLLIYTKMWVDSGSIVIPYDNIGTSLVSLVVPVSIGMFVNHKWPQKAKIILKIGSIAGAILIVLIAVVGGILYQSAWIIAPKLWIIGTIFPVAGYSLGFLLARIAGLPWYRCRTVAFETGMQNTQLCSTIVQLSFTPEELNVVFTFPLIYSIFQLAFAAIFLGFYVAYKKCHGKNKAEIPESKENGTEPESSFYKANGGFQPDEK
Procedure: (§2) (a) Inhibition of Radiolabeled Taurocholate Uptake
(§3) CHO cells transfected with the IBAT or LBAT transporter were seeded into 96-well microtiter plates at 100,000 cells/well in 100 μL DMEM containing 10% serum, glutamine and Penstrep. After overnight incubation the media was removed and test compound (25 μL) added at 2× the final desired concentration. Tritiated taurocholate (50,000 CPM/well) was diluted with cold substrate to a final concentration of 5 μM and 25 μL/well of this mixture was added to the plate. After incubating for 1 h at room temperature the solution was removed and the plate washed 4× with PBS at 4° C. 200 μL/well of scintillant is added and the plate then read in a Wallac microbeta counter. The inhibition data is processed by standard methods to calculate an inhibition constant K1 for the test compound.

IBAT transporter [6] = biological target: T3, IBAT transporter; test: Electrogenic transport in Xenopus oocytes expressing IBAT; format: cell-based; settings: for % Max. (GDC): relative to glycodeoxycholate
Source text: (b) Analysis of Electrogenic Transport in Xenopus Oocytes
RNA preparation: Human IBAT Transporter cDNAs were subcloned into a modified pGEM plasmid that contains 5′ and 3′ untranslated sequences from the Xenopus β-actin gene. These sequences increase RNA stability and protein expression. Plasmid cDNA was linearized and used as template for in vitro transcription (Epicentre Technologies transcription kit, 4:1 methylated:non-methylated GTP).
Xenopus oocyte isolation. Xenopus laevis frogs were anesthetized by immersion in Tricaine ([…] in deionized water) for 15 min. Oocytes were removed and digested in frog ringer solution (90 mM NaCl, 2 mM KCl, 1 mM MgCl2, 10 mM NaHEPES, pH 7.45, no CaCl2) with 1 mg/mL collagenase (Worthington Type 3) for 80-100 min with shaking. The oocytes were washed 6 times, and the buffer changed to frog ringer solution containing CaCl2 (1.8 mM). Remaining follicle cells were removed if necessary. Cells were incubated at 16° C., and each oocyte injected with […] RNA in […] solution.
Electrophysiology measurements. Transport currents were measured 2-14 days after injection, using a standard two-electrode electrophysiology set-up (Geneclamp 500 amplifier, Digidata 1320/PCLAMP software and ADInstruments hardware and software were used for signal acquisition). Electrodes ([…]) were microfabricated using a Sutter Instrument puller and filled with 3M KCl. The bath was directly grounded (transporter currents were less than 0.3 μA). Bath flow was controlled by an automated perfusion system (ALA Scientific Instruments, solenoid valves).
For transporter pharmacology, oocytes were clamped at −60 to −90 mV, and continuous current measurements acquired using PowerLab Software and an ADInstruments digitizer. Current signals were lowpass filtered at 20 Hz and acquired at 4-8 Hz. All bath and drug-containing solutions were frog ringers solution containing CaCl2. Drugs were applied for 10-30 seconds until the induced current reached a new steady-state level, followed by a control solution until baseline currents returned to levels that preceded drug application. The difference current (baseline subtracted from peak current during drug application) reflected the net movement of charge resulting from electrogenic transport and was directly proportional to tranport rate. Recordings were made from a single oocyte for up to 60 min, enabling 30-40 separate compounds to be tested per oocyte. […] To compare results between oocytes expressing different levels of transport activity, a saturating concentration of glycodeoxycholate (300 μM) was used as a common reference to normalize results from test compounds. Using this normalization procedure Vmax (i.e. maximal induced current) for different compounds tested on different oocytes could be compared.

LBAT transporter = biological target: T4, LBAT transporter (Homo sapiens, UniProt Q14973); test: Inhibition of radiolabeled taurocholate uptake in LBAT-expressing CHO cells; format: cell-based; settings: radiolabeled competition assay in LBAT-expressing CHO cells, taurocholate 5 μM
T4 sequence (Q14973 1-349): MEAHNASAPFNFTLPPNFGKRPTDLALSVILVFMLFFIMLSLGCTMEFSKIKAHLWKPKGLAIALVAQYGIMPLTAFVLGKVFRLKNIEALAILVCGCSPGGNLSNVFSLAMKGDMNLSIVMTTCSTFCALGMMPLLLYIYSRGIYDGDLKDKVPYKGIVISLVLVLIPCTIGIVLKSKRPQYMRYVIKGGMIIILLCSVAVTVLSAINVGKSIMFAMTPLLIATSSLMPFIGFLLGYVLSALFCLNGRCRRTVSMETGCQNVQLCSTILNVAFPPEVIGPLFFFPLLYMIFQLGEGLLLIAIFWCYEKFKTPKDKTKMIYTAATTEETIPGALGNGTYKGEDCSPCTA
Procedure: as §2, §3

rPEPT2 [7] = biological target: T2, rPEPT2; test: Inhibition of radiolabeled Gly-Sar uptake in rPEPT2-expressing CHO cells; format: cell-based
Procedure: as §1

Structure (SMILES) | % Max. (Gly-Sar) (rPEPT1 [1]) [%] | IC50 (IBAT transporter [5]) [µM] | EC50 (IBAT transporter [6]) [µM] | IC50 (LBAT transporter) [µM] | other results
NC(Cc1ccccc1)C(=O)NCC1(CC(=O)O)CCCCC1 (centres unmarked) [Phe-Gabapentin] | 52 | – | – | – | IC50 (rPEPT1 [2]): 56 µM; % Max. (Gly-Sar) (rPEPT2 [3]): 77%
NCC(=O)NCC1(CC(=O)O)CCCCC1 [Gly-Gabapentin] | 76 | – | – | – | IC50 (rPEPT1 [2]; radiolabeled competition assay in rPEPT1-expressing CHO cells, read-out: IC50): 320 µM
NCC1(CC(=O)O)CCCCC1 [Gabapentin, gabapentin] | – | – | – | – | bioavailability ([4]; oral): 87 ± 18%; Tmax ([4]; po): 1.3 ± 0.5 h; half-life ([4]; po): 3 ± 1.3 h
C[C@H](CCC(=O)NCC(=O)NCC1(CC(=O)O)CCCCC1)[C@H]1CC[C@H]2[C@@H]3[C@H](O)C[C@@H]4C[C@H](O)CC[C@]4(C)[C@H]3C[C@H](O)[C@]12C [Cholyl-Gly-Gabapentin (9a), Cholyl-Gly-Gabapentin] | – | 66 | 22 | 64 | –
NC(Cc1ccc(O)cc1)C(=O)NCC1(CC(=O)O)CCCCC1 (centres unmarked) [Tyr-Gabapentin] | 22 | – | – | – | IC50 (rPEPT1 [2]): 130 µM; IC50 (rPEPT2 [7]): 4 µM; % Max. (Gly-Sar) (rPEPT2 [3]): 73%
CC(CCC(=O)NC(Cc1ccccc1)C(=O)NCC1(CC(=O)O)CCCCC1)C1CCC2C3C(O)CC4CC(O)CCC4(C)C3CCC12C (centres unmarked) [UDC-Phe-Gabapentin (9p), Ursodeoxycholyl-Phe-Gabapentin] | – | 27 | 18 | 0.7 | % Max. (GDC) (IBAT transporter [6]): 27%
CC(CCC(=O)NC(Cc1ccc(O)cc1)C(=O)NCC1(CC(=O)O)CCCCC1)C1CCC2C3C(O)CC4CC(O)CCC4(C)C3CC(O)C12C (centres unmarked) [Cholyl-Tyr-Gabapentin (9h), Cholyl-Tyr-Gabapentin] | – | 52 | 160 | 15 | % Max. (GDC) (IBAT transporter [6]): 13%
